Test results from patent US11118204B2, “Switchable ionic liquids for biomass pretreatment and enzymatic hydrolysis” (National Technology & Engineering Solutions of Sandia, LLC, priority 2014, dated 2021).
Several values for one entry are separate records, joined by “and”; a condition that tells them apart may be missing. Identical values can stand only once. Blank lines part the entries; values can stand above or below the molecule they belong to.

How the values were obtained:
[1] = ionic liquid solution
[2] = Switchgrass pretreatment in ionic liquid and enzymatic hydrolysis (sugar conversion); conditions: for pretreatment efficiency on dilution of the ionic liquid: 120° C., 3 hrs, FIG. 2B; for biomass pretreatment effectiveness (sugar conversion): pretreatment in neat ionic liquid at 90 or 120° C., hydrolysis in 50 mM sodium succinate pH 5.2, FIG. 2A
Experimental: Putnam Switchgrass (20 mesh—2 mm particle size) was used as the biomass for all experiments. Samples used to determine the pretreatment and dilution efficiency were washed free of ionic liquid with de-ionized water, and re-suspended in 50 mM sodium succinate buffer at pH 5.2. All enzyme hydrolysis reactions were performed with shaking at 50° C. and 20 mg/g 9:1 Ctec2:Htec, unless otherwise specified. Small-scale, one-pot reactions were performed in 2 ml screw-cap vials in heating blocks without mixing with 100 mg biomass at the specified ionic liquid concentration and biomass loading. Reactions were then acidified with 1 eq. of the free acid in the same vial and transferred to shaker incubators for the enzymatic hydrolysis. Larger scale one-pot reactions were performed in glass pressure tubes (Ace Glass, USA) with 2 g or 4 g biomass (Table 1). Liberated glucose and xylose were quantified with an Agilent HPLC using a Bio-Rad Aminex […] column with a 4 mM sulfuric acid mobile phase.
Data for pretreatment at 90° C. and 120° C. is shown using white bars and black bars, respectively. […] (white bars), and dilution of the ionic liquid to 25% with water.
For the data in FIG. 2C, samples were pretreated at 90° C. or 120° C., with various % IL in the liquid fraction and different wt % biomass loadings. All samples were then hydrolyzed at 25% IL concentration with 9:1 Ctec2:Htec at 20 mg/g biomass. White bars, 90° C., 16 hrs; gray bars, 120° C., 3 hrs; black bars, 120° C., 16 hrs.
In FIG. 3A and FIG. 3B, the circles represent data obtained using 10 wt % ionic liquid and the squares represent data obtained using 25 wt % ionic liquid.

[3] = corn stover, 25 wt % ionic liquid
Ctec2 = Ctec2 stability in ionic liquids (residual activity, T50^30); format: biochemical; conditions: for T50^30 (temperature at which enzyme activity is reduced by 50% following 30-minute pre-incubation): Ctec2 pre-incubated 38-80° C. in IL at 5-20%, substrates CMC, PNP-cellobiose, PNP-glucopyranoside, FIG. 1
Experimental: Enzyme stability was monitored by residual activity measurements. Ctec2 was diluted 200-fold into nine ionic liquid or buffer solutions at concentrations from 1-20 wt %. Each enzyme solution was then divided into 18 wells in a thin-walled PCR plate and incubated in thermal […] (Applied Biosystems, Veriti) at temperatures from 38-80° C. for 30 minutes. […] CMC reaction end-points were analyzed by DNS assay to detect reducing sugars. The end-points of the paranitrophenol reactions were measured by absorbance at 405 nm. […] Error was estimated by replication of both the incubation and activity measurement steps. Some solution conditions produced clearly bi-modal inactivation curves; in these cases the larger of the two transitions was reported. […] To capture the stability differences for several different enzyme classes in the multicomponent commercial enzyme mixture, the T50^30 was measured on three different representative substrates: carboxymethylcellulose (CMC), 4-Nitrophenyl β-D-glucopyranoside (PNP-glucopyranoside) and 4-Nitrophenyl β-D-cellobiose (PNP-cellobiose). […] In FIG. 1, data for acetate-based ionic liquids are shown in the left-hand panels: [Em][Ac] (open circle, solid line); [Ch][Ac] (closed circle, solid line); [Na][Ac], pH 5.2 at 25° C. (closed circle, dashed line). Data for glutamic acid-based ionic liquids are shown in the center panels: […] [Ch]2[Glu] (closed triangle, solid line); […] (open circle, dashed line). Data for succinic acid-based ionic liquids are shown in the right-hand panels: […] [Na][Sc], pH 5.2 at 25° C. (closed square, dashed line); […]

[4] = [Em][Ac] (20%) acidified with acetic acid to pH ~5

Molecule: C[N+](C)(C)CCO.C[N+](C)(C)CCO.N[C@@H](CCC(=O)[O-])C(=O)[O-] [[Ch]2[Glu], (choline)2 glutamate]
- solution pH [1]: 10-11
- performance (glucose yield) relative to the neat ionic liquid ([2]; 25% solution, pretreatment 120° C., 16 hours, one-pot): ~90%
- pretreatment efficiency on dilution of the ionic liquid [2]: consistently high pretreatment efficiency
- biomass pretreatment effectiveness (sugar conversion) [2]: marked improvement
- glucose yield [3]: ~95%
- T50^30 (temperature at which enzyme activity is reduced by 50% following 30-minute pre-incubation) (Ctec2): lowest
- CTec2 activity (Ctec2; at the lowest ionic liquid concentrations): very low

Molecule: C[N+](C)(C)CCO.C[N+](C)(C)CCO.O=C([O-])CCC(=O)[O-] [[Ch]2[Sc], (choline)2 succinate]
- solution pH [1]: ~7
- pretreatment efficiency on dilution of the ionic liquid [2]: monotonic decrease in efficiency
- sugar release relative to [Ch][Glu] ([2]; pretreatment at 120° C.): twice as much sugar
- biomass pretreatment effectiveness (sugar conversion) [2]: marked improvement

Molecule: C[N+](C)(C)CCO.C[N+](C)(C)CCO.O=C([O-])C(=O)[O-] [[Ch]2[oxalic acid], reference compound]
- Glucose conversion ([2]; ionic liquid used neat): 48%
- glucose conversion above hot water pretreatment ([2]; ionic liquid used neat): ~15%

Molecule: Choline succinate [[Ch][Sc]]
- biomass pretreatment effectiveness (sugar conversion) [2]: poorly

Molecule: choline glutamate [[Ch][Glu]]
- Glucose conversion ([2]; 10 wt % IL, 10% switchgrass, pretreatment at 120° C. with [Ch]2[Glu], one-pot hydrolysis with CTec2): 91%
- Glucose conversion ([2]; 25 wt % IL, 10% switchgrass, pretreatment at 120° C. with [Ch]2[Glu], one-pot hydrolysis with CTec2): 82%
- biomass pretreatment effectiveness (sugar conversion) [2]: poorly

Results, then the molecule that gave them:

- stability of the commercial enzyme mixture on CMC (Ctec2; [4]): slightly
- stability of the commercial enzyme mixture on the para-nitrophenol substrates (Ctec2; [4]): decreased significantly
Molecule: CC(=O)[O-].CCn1cc[n+](C)c1 [[Em][Ac], 1-ethyl-3-methylimidazolium acetate]

- solution pH [1]: ~14 and ~12
- T50^30 (temperature at which enzyme activity is reduced by 50% following 30-minute pre-incubation) (Ctec2): similarly low
Molecule: Choline lysinate [[Ch][Lys], reference compound]
